Experimental data as given in patent EP0974362A1, “DRUGS CONTAINING ENZYME INHIBITORS AS THE ACTIVE INGREDIENT” (CHUGAI SEIYAKU KABUSHIKI KAISHA, priority 1997, dated 1998).
Read-outs that look alike come from different tables or passages of the source.

Tests used:
[1] = target: T1, adenylosuccinate synthase (Oryctolagus cuniculus, UniProt G1TGN8); assay: adenylosuccinate synthase inhibition (change of absorbance at 285 nm with time); assay type: biochemical
T1 sequence (G1TGN8 with tags, fused parts or gaps): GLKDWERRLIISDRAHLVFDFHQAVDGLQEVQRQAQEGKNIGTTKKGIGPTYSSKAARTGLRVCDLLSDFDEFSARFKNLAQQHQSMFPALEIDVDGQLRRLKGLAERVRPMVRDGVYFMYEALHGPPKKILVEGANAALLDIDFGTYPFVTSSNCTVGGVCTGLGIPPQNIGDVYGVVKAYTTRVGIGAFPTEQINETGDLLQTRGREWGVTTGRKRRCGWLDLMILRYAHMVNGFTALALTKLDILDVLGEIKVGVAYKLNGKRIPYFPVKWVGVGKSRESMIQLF
From the text: As existing adenylosuccinate synthase inhibitors, hydantocidin-5'-monophosphate and hadacidin were chosen and compared for their level of enzyme inhibitory activity. Hydantocidin-5'-monophosphate was synthesized by debenzylating an intermediate synthesized by the method of Mio et al. (Tetrahedron, 47, 2133-2144, 1991), [2R, 3R, 4R, 5S]-6-N-acetyl-2-benzyloxymethyl-3,4-isopropylidene-1-oxa-6,8-diazaspiro[4,4]nonane-7,9-dione (Compound 24) and then converting it into its diphenyl phosphate ester, followed by deacetonidation, deacetylation and dephenylation by catalytic reduction. Hadacidin was synthesized by the method of Jahngen-Rossomand (Synth. Commun. 12, 601-606, 1982). Adenylosuccinate synthase was purified from rabbit muscles by the method of Fischer et al. (Methods in Enzymol. LI, 207-213). Each inhibitor (hydantocidin-5'-monophosphate or hadacidin at a final concentration of 1µM-1mM) (10 µl) and a substrate solution (50 mM HEPES, pH 7.3, 1 mM MgCl2, 0.2 mM GTP, 0.2 mM IMP, 2.5 mM Asp [each final concentration]) (60 µl) were added to adenylosuccinate synthase (10 µl) added dropwise into a microspectroscopic cell, and mixed together, then the microspectroscopic cell was immediately set in a spectrophotometer BECKMAN DU650 (Beckman) to determine change of absorbance at 285 nm with time for a period of 2 to 5 minutes after the reaction was started.

[2] = system: Raji cells having MTAP activity; assay: cell growth, MTT method; assay type: cell-based, human
Experimental: (§1) CCRF-CEM cells lacking MTAP activity and Raji cells having MTAP activity suspended in a modified MEM Zn^++ medium (GIBCO BRL) containing 10% dialyzed horse serum (GIBCO BRL) pretreated at 56°C for 30 minutes were plated on 96-well microplates at concentrations of 1.5 x 10^5 cells/ml and 5 x 10^4 cells/ml, respectively, and adenylosuccinate synthase inhibitors (hydantocidin-5'-monophosphate and hadacidin at a final concentration of 1 µM-1mM) were added to 100 µl/well in the presence or absence of a substrate for MTAP, MTA (final concentration 10 µM). After incubation in the presence of 5% CO2 at 37°C for 2 days, the survival cell number was counted by the MTT method (J. Immunol. Methods, 65, 55-63, 1983) (using Cell Titer 96® Aqueous Non-Radioactive Cell Proliferation Assay [Promega]) to assess effects on cell growth.

[3] = system: CCRF-CEM cells lacking MTAP activity; assay: cell growth, MTT method; assay type: cell-based, human
Experimental: as §1

[4] = system: human non-small cell lung cancer cell line A549; assay: cell growth, [3H] thymidine uptake; assay type: cell-based; settings: 3 days incubation; [3H] thymidine uptake for 5 hours; Fig. 5A
Experimental: (§2) Cell extracts were reacted with [8-^14C] MTA, a substrate for MTAP, and the reaction solutions were partially developed by thin-layer chromatography to visualize spots corresponding to [^14C] adenine produced by the action of MTAP in the presence of [8-^14C] […] The same experiment was performed as for Raji cells in Fig. 3 except that incubation was performed for 3 days. […] The same experiment was performed as for Raji cells in Fig. 3 except that incubation was performed for 3 days and that [^3H] thymidine uptake for 5 hours was assayed. […]
as §1

[5] = system: human pancreatic cancer cell line BxPC-3; assay: cell growth, [3H] thymidine uptake; assay type: cell-based; settings: 3 days incubation; [3H] thymidine uptake for 5 hours; Fig. 5B
Experimental: as §2, §1

[6] = system: human glioma cell line T98G having MTAP activity; assay: cell growth, MTT method, 3 days incubation; assay type: cell-based; settings: Fig. 4B
Experimental: as §2, §1

[7] = system: human glioma cell line A-172 lacking MTAP activity; assay: cell growth, MTT method, 3 days incubation; assay type: cell-based; settings: Fig. 4A
Experimental: as §2, §1

[8] = absence of MTA, compared with CCRF-CEM in presence of MTA, 2 days

Structure (SMILES)	IC50 ([1]; enzyme purified from rabbit muscles; 0.2 mM GTP, 0.2 mM IMP, 2.5 mM Asp, pH 7.3; read-out: IC50 (inhibited adenylosuccinate synthase activity))	cytotoxicity ([2]; MTA added (final concentration 10 µM), 2 days incubation)	level of cytotoxicity in the absence of MTA [2, 8]	IC50 ([3]; Homo sapiens, CCRF-CEM, 48 h, read-out: IC50 (cytotoxicity))	level of cytotoxicity in the absence of MTA [3, 8]	IC50 ([1]; read-out: IC50 (inhibited adenylosuccinate synthase activity); enzyme purified from rabbit muscles; 0.2 mM GTP, 0.2 mM IMP, 2.5 mM Asp, pH 7.3)	growth inhibitory effects [4]	growth inhibitory effects [5]	toxicity [6]	toxicity [7]
O=CN(O)CC(=O)O [hadacidin]	10 µM	–	–	–	–	–	–	–	–	–
O=C1NC(=O)[C@@]2(N1)O[C@H](COP(=O)(O)O)[C@@H](O)[C@H]2O [hydantocidin-5'-monophosphate]	–	did not show cytotoxicity	comparable	30 µM	comparable	0.03 µM	showed growth inhibitory effects	showed growth inhibitory effects	showed selective toxicity	showed selective toxicity
